# Test results as given in patent publication US20250099466A1 (BRISTOL-MYERS SQUIBB COMPANY, priority 2021, published 2025).
# Entries after “also recorded” stand apart in the source; their conditions may differ.
# Legend:
# [1] = test system: subjects undergoing elective total knee replacement surgery; test: Phase 2 study after elective total knee replacement: bleeding events (safety); format: in vivo, human; conditions: safety set, on-treatment
# Excerpt: The principal safety outcome was any bleeding, which was defined as the composite of major, clinically relevant nonmajor, and minimal bleeding. Secondary safety outcomes were: (a) major bleeding, (b) clinically relevant nonmajor bleeding, (c) clinically relevant bleeding, defined as the composite of major and clinically relevant nonmajor bleeding, and (d) minimal bleeding. Bleeding was classified as major if it was overt and associated with a decrease in hemoglobin of 2 g/dL or more or necessitated transfusion of 2 or more units of blood with a temporal association within 24 to 48 hours of the bleed; or if it occurred in a critical area or organ or contributed to death. […] Overt bleeding not meeting the criteria for major bleeding, but that necessitated medical examination or intervention or had clinical consequences, was classified as clinically relevant nonmajor bleeding. Bleeding not meeting the criteria for major or clinically relevant nonmajor bleeding was classified as minimal bleeding (Schulman et al., Definition of major bleeding in clinical investigations of antihemostatic medicinal products in surgical patients. J Thromb Haemost 2010; 8:202-4).
# Analysis of safety outcomes was performed in the safety population, which included all randomized patients who received at least one dose of study medication; the time for analysis included the on-treatment period plus 2 days. For each bleeding outcome, the rate in each milvexian group was compared with that in the enoxaparin group with the same methods used for evaluation of the secondary efficacy outcomes. The Kaplan-Meier method was used to assess the time to the first occurrence of any bleeding with milvexian or enoxaparin.
# The key secondary objective of the study was to assess the dose-response trend of milvexian for the occurrence of Any Bleeding events during the treatment period. Any Bleeding was defined as the composite of major bleeding according to the International Society on Thrombosis and Haemostasis (ISTH) criteria modified for the surgical setting, clinically relevant nonmajor bleeding events or minimal bleeding events as assessed by the clinical events committee (CEC).
# [2] = test system: electrically induced carotid artery thrombus (ECAT) in rabbits; test: Prevention rabbit model of electrically induced carotid artery thrombus (ECAT); format: in vivo
# Protocol: (§1) The rabbit ECAT model as described by Wong et al., Nonpeptide factor Xa inhibitors: II.
# (§2) Male New Zealand white rabbits were anesthetized with ketamine (50 mg/kg+50 mg/kg/h intramuscularly) and xylazine (10 mg/kg+10 mg/kg/h intramuscularly). Thrombosis was induced by electrical stimulation of the control carotid artery for 3 minutes at 4 mA using an external stainless-steel bipolar electrode. Carotid blood flow was measured with an electromagnetic flow probe continuously over a 90-minute period to monitor thrombosis induced occlusion. Integrated carotid blood flow was measured by the area under the flowtime curve (see Wong et al.). In addition, thrombus from the injured artery was removed, blotted twice on a weighing paper to remove residual fluid, and weighed.
# (§3) To achieve a stable plasma level with minimum experimental variability, compounds were administered by IV infusion. […] The IV infusion was continued throughout the experiment for both models.
# (§4) Integrated blood flow, thrombus weight, aPTT (activated partial thromboplastin time), TT (thrombin time), and PT (prothrombin time) were also measured.
# [3] = test system: electrically induced carotid artery thrombus (ECAT) in rabbits; test: Treatment rabbit ECAT model (dosing 15 minutes after vessel injury); format: in vivo; conditions: for carotid blood flow at 90 minutes (% of control carotid blood flow): n=6; for reduction in thrombus weight: treatment ECAT
# Protocol: as §1, §2, §3, §4
# [4] = milvexian 50 mg BID, listed as Milvexian
# [5] = milvexian 100 mg BID, listed as Milvexian
# [6] = milvexian 200 mg once daily, listed as Milvexian
# [7] = milvexian all regimens combined
# [8] = milvexian combined BID regimens
structure (smiles),measurement,setting,value
"C[C@@H]1CCC[C@H](n2cnc(-c3cc(Cl)ccc3-n3cc(Cl)nn3)cc2=O)c2cc(ccn2)-c2c(cnn2C(F)F)NC1=O [milvexian, (5R,9S)-9-(4-(5-chloro-2-(4-chloro-1H-1,2,3-triazol-1-yl)phenyl)-6-oxopyrimidin-1(6H)-yl)-21-(difluoromethyl)-5-methyl-21H-3-aza-1(4,2)-pyridina-2(5,4)-pyrazolacyclononaphan-4-one]",Any Bleeding %,[1]; milvexian 25 mg BID,1.4%
same,Any Bleeding RR vs Enox,[1]; milvexian 25 mg BID,0.33
same,Any Bleeding n,[1]; milvexian 25 mg BID,2 n
same,Major+CRNM bleeding %,[1]; milvexian 25 mg BID,0%
same,Major+CRNM bleeding n,[1]; milvexian 25 mg BID,0 n
same,Minimal Bleeding %,[1]; milvexian 25 mg BID,(1.4%)
same,Minimal Bleeding RR vs Enox,[1]; milvexian 25 mg BID,0.50
same,Minimal Bleeding n,[1]; milvexian 25 mg BID,2 n
same,Any Bleeding %,"[1]; milvexian 25 mg BID, listed as Milvexian",(1.4%)
same,Any Bleeding %,[1]; milvexian 25 mg once daily,0%
same,Any Bleeding n,[1]; milvexian 25 mg once daily,0 n
same,Major+CRNM bleeding n,[1]; milvexian 25 mg once daily,0 n
same,Minimal Bleeding n,[1]; milvexian 25 mg once daily,0 n
same,Any Bleeding %,[1]; milvexian 50 mg BID,4.7%
same,Any Bleeding RR vs Enox,[1]; milvexian 50 mg BID,1.15
same,Any Bleeding n,[1]; milvexian 50 mg BID,7 n
same,Major+CRNM bleeding %,[1]; milvexian 50 mg BID,1.4%
same,Major+CRNM bleeding RR vs Enox,[1]; milvexian 50 mg BID,0.79
same,Major+CRNM bleeding n,[1]; milvexian 50 mg BID,2 n
same,Minimal Bleeding %,[1]; milvexian 50 mg BID,(3.4%)
same,Minimal Bleeding RR vs Enox,[1]; milvexian 50 mg BID,1.23
same,Minimal Bleeding n,[1]; milvexian 50 mg BID,5 n
same,Any Bleeding %,[1]; [4],(4.7%)
same,Major+CRNM bleeding %,[1]; [4],(1.4%)
same,Any Bleeding %,[1]; milvexian 50 mg once daily,(5.3%)
same,Any Bleeding RR vs Enox,[1]; milvexian 50 mg once daily,1.17
same,Any Bleeding n,[1]; milvexian 50 mg once daily,8 n
same,Major+CRNM bleeding %,[1]; milvexian 50 mg once daily,1.3%
same,Major+CRNM bleeding RR vs Enox,[1]; milvexian 50 mg once daily,0.68
same,Major+CRNM bleeding n,[1]; milvexian 50 mg once daily,2 n
same,Minimal Bleeding %,[1]; milvexian 50 mg once daily,(4.0%)
same,Minimal Bleeding RR vs Enox,[1]; milvexian 50 mg once daily,1.35
same,Minimal Bleeding n,[1]; milvexian 50 mg once daily,6 n
same,Major+CRNM bleeding %,"[1]; milvexian 50 mg once daily, listed as Milvexian",(1.3%)
same,Any Bleeding %,[1]; milvexian 100 mg BID,4.7%
same,Any Bleeding RR vs Enox,[1]; milvexian 100 mg BID,1.14
same,Any Bleeding n,[1]; milvexian 100 mg BID,7 n
same,Major+CRNM bleeding %,[1]; milvexian 100 mg BID,0.7%
same,Major+CRNM bleeding RR vs Enox,[1]; milvexian 100 mg BID,0.39
same,Major+CRNM bleeding n,[1]; milvexian 100 mg BID,1 n
same,Minimal Bleeding %,[1]; milvexian 100 mg BID,(4.7%)
same,Minimal Bleeding RR vs Enox,[1]; milvexian 100 mg BID,1.71
same,Minimal Bleeding n,[1]; milvexian 100 mg BID,7 n
same,Any Bleeding %,[1]; [5],(4.7%)
same,Major+CRNM bleeding %,[1]; [5],(0.7%)
same,Any Bleeding %,[1]; milvexian 200 mg BID,(3.4%)
same,Any Bleeding RR vs Enox,[1]; milvexian 200 mg BID,0.81
same,Any Bleeding n,[1]; milvexian 200 mg BID,5 n
same,Major+CRNM bleeding %,[1]; milvexian 200 mg BID,0.7%
same,Major+CRNM bleeding RR vs Enox,[1]; milvexian 200 mg BID,0.39
same,Major+CRNM bleeding n,[1]; milvexian 200 mg BID,1 n
same,Minimal Bleeding %,[1]; milvexian 200 mg BID,(2.7%)
same,Minimal Bleeding RR vs Enox,[1]; milvexian 200 mg BID,0.96
same,Minimal Bleeding n,[1]; milvexian 200 mg BID,4 n
same,Major+CRNM bleeding %,"[1]; milvexian 200 mg BID, listed as Milvexian",(0.7%)
same,Any Bleeding %,[1]; milvexian 200 mg once daily,6.1%
same,Any Bleeding RR vs Enox,[1]; milvexian 200 mg once daily,1.51
same,Any Bleeding n,[1]; milvexian 200 mg once daily,9 n
same,Major+CRNM bleeding %,[1]; milvexian 200 mg once daily,0.7%
same,Major+CRNM bleeding RR vs Enox,[1]; milvexian 200 mg once daily,0.40
same,Major+CRNM bleeding n,[1]; milvexian 200 mg once daily,1 n
same,Minimal Bleeding %,[1]; milvexian 200 mg once daily,(5.4%)
same,Minimal Bleeding RR vs Enox,[1]; milvexian 200 mg once daily,2.01
same,Minimal Bleeding n,[1]; milvexian 200 mg once daily,8 n
same,Any Bleeding %,[1]; [6],(6.1%)
same,Major+CRNM bleeding %,[1]; [6],(0.7%)
same,Any Bleeding %,[1]; [7],4.1%
same,Any Bleeding n,[1]; [7],38 n
same,Any bleeding RR (CI) vs enoxaparin,[1]; [7],0.99 (0.53-1.85)
same,Clinically relevant non-major Bleeding %,[1]; [7],0.8%
same,Clinically relevant non-major Bleeding RR (CI) vs enoxaparin,[1]; [7],0.55 (0.16-1.85)
same,Clinically relevant non-major Bleeding n,[1]; [7],7 n
same,Major Bleeding n,[1]; [7],no major bleeds; also recorded: No CEC adjudicated major bleeding
same,Major bleeding or CRNM Bleeding RR (CI) vs enoxaparin,[1]; [7],0.44 (0.14-1.35)
same,Major+CRNM bleeding %,[1]; [7],0.8%
same,Major+CRNM bleeding n,[1]; [7],7 n
same,Minimal Bleeding %,[1]; [7],3.5%
same,Minimal Bleeding RR (CI) vs enoxaparin,[1]; [7],1.26 (0.59-2.67)
same,Minimal Bleeding n,[1]; [7],32 n
same,Major Bleeding n,"[1]; milvexian all regimens combined, listed as Milvexian",0 n
same,Any Bleeding %,[1]; [8],3.5%
same,Any Bleeding n,[1]; [8],21 n
same,Any bleeding RR (CI) vs enoxaparin,[1]; [8],0.86 (0.43-1.71)
same,Clinically relevant non-major Bleeding %,[1]; [8],0.7%
same,Clinically relevant non-major Bleeding RR (CI) vs enoxaparin,[1]; [8],0.49 (0.12-1.96)
same,Clinically relevant non-major Bleeding n,[1]; [8],4 n
same,Major Bleeding n,[1]; [8],0 n
same,Major bleeding or CRNM Bleeding RR (CI) vs enoxaparin,[1]; [8],0.39 (0.11-1.44)
same,Major+CRNM bleeding %,[1]; [8],0.7%
same,Major+CRNM bleeding n,[1]; [8],4 n
same,Minimal Bleeding %,[1]; [8],3.0%
same,Minimal Bleeding RR (CI) vs enoxaparin,[1]; [8],1.10 (0.49-2.49)
same,Minimal Bleeding n,[1]; [8],18 n
same,thrombus weight reduction,"[2]; highest dose (1+0.67 mg/kg+mg/kg/h IV), prevention ECAT",70±2%
same,"integrated blood flow, % of the control level","[2]; highest dose (1+0.67 mg/kg+mg/kg/h IV), prevention ECAT, n=6",76±5%
same,duration of the patency of the carotid artery,"[2]; prevention ECAT, 0.063+0.04, 0.25+0.17, 1+0.67 mg/kg+mg/kg/h IV",dose-dependent increase in duration of the patency of the carotid artery
same,bleeding time,[2]; rabbit,without a significant increase in bleeding time
same,antithrombotic 20% maximal effective concentration (EC20),"[2]; total plasma concentration, thrombus weight reduction, prevention ECAT",55 nM
same,carotid blood flow at 90 minutes (% of control carotid blood flow),[3]; 0.25+0.17 mg/kg+mg/kg/h IV at 15 minutes after initiation of thrombosis,39±10%
same,reduction in thrombus weight,[3]; 0.25+0.17 mg/kg+mg/kg/h IV,25±7%
same,carotid blood flow at 90 minutes (% of control carotid blood flow),[3]; 1+0.67 mg/kg+mg/kg/h IV at 15 minutes after initiation of thrombosis,66±2%
same,reduction in thrombus weight,[3]; 1+0.67 mg/kg+mg/kg/h IV,61±6%
